Source: patent US20250163104A1, “MACROCYCLIC IMMUNOMODULATORS” (priority 2021, published 2025)
pIC50: −log10 of the molar value. Where a SMILES comes first, the peptide text is derived from it. Bridges are numbered along the chain shown (N, C = ends). [ ]: non-standard residue; d: D form. The star is where a group is joined. ξ: configuration not given here. Ala(1H-tetrazol-5-yl) = N[C@@H](Cc1nnn[nH]1)C(=O)O; Phe(4-COOH) = N[C@@H](Cc1ccc(C(=O)O)cc1)C(=O)O; Bip = N[C@@H](Cc1ccc(-c2ccccc2)cc1)C(=O)O; Phe(3-Me) = Cc1cccc(C[C@H](N)C(=O)O)c1; 4Pal = N[C@@H](Cc1ccncc1)C(=O)O; Cha = N[C@@H](CC1CCCCC1)C(=O)O; Cit = NC(=O)NCCC[C@H](N)C(=O)O; Carboxymethyl = O=C(O)C*; Orn = NCCC[C@H](N)C(=O)O; Dab = NCC[C@H](N)C(=O)O; Dap = NC[C@H](N)C(=O)O; ξOrn = NCCCC(N)C(=O)O

molecular target: T1, human PD-1 / PD-L1-Ig binding on Jurkat cell line over-expressing human PD-1 (Jurkat-PD-1) (Homo sapiens, UniProt Q15116); experiment: Jurkat-PD-1 Cell Binding High-Content Screening Assay (CBA); assay type: cell-based; settings: Jurkat-PD-1 cells, PE-labeled PD-L1-Ig 20 nM final; read-out: Jurkat HPD1_PDL1 IC50
T1 construct: expressed in transfected cells; host or cells: Jurkat
T1 sequence (Q15116 25-288): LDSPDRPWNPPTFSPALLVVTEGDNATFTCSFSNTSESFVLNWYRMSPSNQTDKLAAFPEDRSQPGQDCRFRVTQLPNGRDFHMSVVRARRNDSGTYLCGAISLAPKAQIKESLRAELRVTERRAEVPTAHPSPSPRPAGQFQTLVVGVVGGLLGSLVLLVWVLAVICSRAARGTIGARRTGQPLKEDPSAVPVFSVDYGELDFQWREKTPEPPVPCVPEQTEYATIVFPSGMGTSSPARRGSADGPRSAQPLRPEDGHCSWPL
Summary of the method: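 Cell-bound PE-labeled PD-L1-Ig (20 nM final, 1 h) measured by high-content imaging after fixation and Hoechst 33342 counterstain. Compound was applied first for 2 h at 37° C. to Jurkat cells over-expressing human PD-1 in DMEM with 10% FCS.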

SMILES	pIC50
CC(C)C[C@H]1NC(=O)[C@H](CCCN)NC(=O)[C@H](CCCNC(N)=O)NC(=O)[C@H](Cc2ccc(-c3ccccc3)cc2)NC(=O)[C@H](C(C)C)NC(=O)[C@H](Cc2c[nH]c3ccccc23)NC(=O)[C@H](CC(=O)O)NC(=O)[C@H](Cc2ccc(OCC(=O)O)cc2)NC(=O)[C@H](CN)NC(=O)CSC[C@@H](C(=O)N[C@@H](C)C(N)=O)NC(=O)[C@H](C(C)C)NC(=O)[C@H](C(C)C)NC(=O)[C@H](CC2CCCCC2)NC(=O)[C@H](CCN)NC1=O [Compound 1319] ({CH2CO}-[Dap]Y(Carboxymethyl)DWV[Bip][Cit][Orn][dL][Dab][Cha]VVCA-NH2; thioether N-14)	7.30
CC[C@H](C)[C@@H]1NC(=O)[C@H](C(C)C)NC(=O)[C@H](CC2CCCCC2)NC(=O)[C@H](CCN)NC(=O)[C@@H](CC(C)C)NC(=O)[C@H](CCCN)NC(=O)[C@H](CCCNC(N)=O)NC(=O)[C@H](Cc2ccc(-c3ccccc3)cc2)NC(=O)[C@H](C(C)C)NC(=O)[C@H](Cc2c[nH]c3ccccc23)NC(=O)[C@H](CC(=O)O)NC(=O)[C@H](Cc2ccc(OCC(=O)O)cc2)NC(=O)[C@H](CN)NC(=O)CSC[C@@H](C(=O)N[C@@H](C)C(N)=O)NC1=O [Compound 1320] ({CH2CO}-[Dap]Y(Carboxymethyl)DWV[Bip][Cit][Orn][dL][Dab][Cha]VICA-NH2; thioether N-14)	7.28
CC(C)C[C@@H]1NC(=O)[C@H](C(C)C)NC(=O)[C@H](CC2CCCCC2)NC(=O)[C@H](CCN)NC(=O)[C@@H](CC(C)C)NC(=O)[C@H](CCCN)NC(=O)[C@H](CCCNC(N)=O)NC(=O)[C@H](Cc2ccc(-c3ccccc3)cc2)NC(=O)[C@H](C(C)C)NC(=O)[C@H](Cc2c[nH]c3ccccc23)NC(=O)[C@H](CC(=O)O)NC(=O)[C@H](Cc2ccc(OCC(=O)O)cc2)NC(=O)[C@H](CN)NC(=O)CSC[C@@H](C(=O)N[C@@H](C)C(N)=O)NC1=O [Compound 1321] ({CH2CO}-[Dap]Y(Carboxymethyl)DWV[Bip][Cit][Orn][dL][Dab][Cha]VLCA-NH2; thioether N-14)	7.10
Cc1cccc(C[C@@H]2NC(=O)[C@H](CC(=O)O)NC(=O)[C@H](Cc3ccncc3)NC(=O)[C@H](Cc3ccc(OCC(=O)O)cc3)NC(=O)CSC[C@@H](C(=O)N[C@@H](C)C(N)=O)NC(=O)[C@H]([C@@H](C)O)NC(=O)[C@H](C(C)C)NC(=O)[C@H](CC(C)C)NC(=O)[C@H](CCN)NC(=O)[C@@H](CC(C)C)NC(=O)[C@H](CCCN)NC(=O)[C@H](CCCNC(N)=O)NC(=O)[C@H](Cc3ccc(-c4ccccc4)cc3)NC(=O)[C@H](C(C)C)NC2=O)c1 [Compound 1324] ({CH2CO}-Y(Carboxymethyl)[4Pal]D[Phe(3-Me)]V[Bip][Cit][Orn][dL][Dab]LVTCA-NH2; thioether N-14)	7.81
CC(C)C[C@H]1NC(=O)[C@H](CCCN)NC(=O)[C@H](CCCNC(N)=O)NC(=O)[C@H](Cc2ccc(-c3ccccc3)cc2)NC(=O)[C@H](C(C)C)NC(=O)[C@H](Cc2c[nH]c3ccccc23)NC(=O)[C@H](CC(=O)O)NC(=O)[C@H](Cc2ccncc2)NC(=O)[C@H](Cc2ccc(OCC(=O)O)cc2)NC(=O)CSC[C@@H](C(=O)N[C@@H](C)C(N)=O)NC(=O)[C@H]([C@@H](C)O)NC(=O)[C@H](C(C)C)NC(=O)[C@H](CC2CCCCC2)NC(=O)[C@H](CCN)NC1=O [Compound 1326]	7.92
CC(C)C[C@H]1NC(=O)C(CCCN)NC(=O)[C@H](CCCNC(N)=O)NC(=O)[C@H](Cc2ccc(-c3ccccc3)cc2)NC(=O)[C@H](C(C)C)NC(=O)[C@H](Cc2c[nH]c3ccccc23)NC(=O)[C@H](CC(=O)O)NC(=O)[C@H](Cc2ccc(C(=O)O)cc2)NC(=O)[C@H](CN)NC(=O)CSC[C@@H](C(=O)N[C@@H](C)C(N)=O)NC(=O)[C@H]([C@@H](C)O)NC(=O)[C@H](C(C)C)NC(=O)[C@H](CC2CCCCC2)NC(=O)[C@H](CCN)NC1=O (stereo partly drawn) [Compound 1333] ({CH2CO}-[Dap][Phe(4-COOH)]DWV[Bip][Cit][ξOrn][dL][Dab][Cha]VTCA-NH2; thioether N-14)	8.16

More lines, in order of rising pIC50, values ahead:

pIC50	SMILES
7.46	CC(C)C[C@H]1NC(=O)[C@H](CCCN)NC(=O)[C@H](CCCNC(N)=O)NC(=O)[C@H](Cc2ccc(-c3ccccc3)cc2)NC(=O)[C@H](C(C)C)NC(=O)[C@H](Cc2c[nH]c3ccccc23)NC(=O)[C@H](Cc2nn[nH]n2)NC(=O)[C@H](Cc2ccc(OCC(=O)O)cc2)NC(=O)[C@H](CN)NC(=O)CSC[C@@H](C(=O)N[C@@H](C)C(N)=O)NC(=O)[C@H]([C@@H](C)O)NC(=O)[C@H](C(C)C)NC(=O)[C@H](CC2CCCCC2)NC(=O)[C@H](CCN)NC1=O [Compound 1328] ({CH2CO}-[Dap]Y(Carboxymethyl)[Ala(1H-tetrazol-5-yl)]WV[Bip][Cit][Orn][dL][Dab][Cha]VTCA-NH2; thioether N-14)
7.50	Cc1cccc(C[C@@H]2NC(=O)[C@H](Cc3nn[nH]n3)NC(=O)[C@H](Cc3ccc(OCC(=O)O)cc3)NC(=O)[C@H](CN)NC(=O)CSC[C@@H](C(=O)N[C@@H](C)C(N)=O)NC(=O)[C@H]([C@@H](C)O)NC(=O)[C@H](C(C)C)NC(=O)[C@H](CC3CCCCC3)NC(=O)[C@H](CCN)NC(=O)[C@@H](CC(C)C)NC(=O)[C@H](CCCN)NC(=O)[C@H](CCCNC(N)=O)NC(=O)[C@H](Cc3ccc(-c4ccccc4)cc3)NC(=O)[C@H](C(C)C)NC2=O)c1 [Compound 1327] ({CH2CO}-[Dap]Y(Carboxymethyl)[Ala(1H-tetrazol-5-yl)][Phe(3-Me)]V[Bip][Cit][Orn][dL][Dab][Cha]VTCA-NH2; thioether N-14)
7.53	CC(C)C[C@@H]1NC(=O)[C@H](CCN)NC(=O)[C@@H](CC(C)C)NC(=O)[C@H](CCCN)NC(=O)[C@H](CCCNC(N)=O)NC(=O)[C@H](Cc2ccc(-c3ccccc3)cc2)NC(=O)[C@H](C(C)C)NC(=O)[C@H](Cc2c[nH]c3ccccc23)NC(=O)[C@H](CC(=O)O)NC(=O)[C@H](Cc2ccncc2)NC(=O)[C@H](Cc2ccc(OCC(=O)O)cc2)NC(=O)CSC[C@@H](C(=O)N[C@@H](C)C(N)=O)NC(=O)[C@H]([C@@H](C)O)NC(=O)[C@H](C(C)C)NC1=O [Compound 1323] ({CH2CO}-Y(Carboxymethyl)[4Pal]DWV[Bip][Cit][Orn][dL][Dab]LVTCA-NH2; thioether N-14)
7.67	CC(C)C[C@@H]1NC(=O)[C@H](CC2CCCCC2)NC(=O)[C@H](CCN)NC(=O)[C@@H](CC(C)C)NC(=O)[C@H](CCCN)NC(=O)[C@H](CCCNC(N)=O)NC(=O)[C@H](Cc2ccc(-c3ccccc3)cc2)NC(=O)[C@H](C(C)C)NC(=O)[C@H](Cc2c[nH]c3ccccc23)NC(=O)[C@H](CC(=O)O)NC(=O)[C@H](Cc2ccc(OCC(=O)O)cc2)NC(=O)[C@H](CN)NC(=O)CSC[C@@H](C(=O)N[C@@H](C)C(N)=O)NC(=O)[C@H]([C@@H](C)O)NC1=O [Compound 1322] ({CH2CO}-[Dap]Y(Carboxymethyl)DWV[Bip][Cit][Orn][dL][Dab][Cha]LTCA-NH2; thioether N-14)
7.89	CC[C@H](C)[C@@H]1NC(=O)[C@H](Cc2ccc(-c3ccccc3)cc2)NC(=O)[C@H](C(C)C)NC(=O)[C@H](Cc2cccc(C)c2)NC(=O)[C@H](CC(=O)O)NC(=O)[C@H](Cc2ccncc2)NC(=O)[C@H](Cc2ccc(OCC(=O)O)cc2)NC(=O)CSC[C@@H](C(=O)N[C@@H](C)C(N)=O)NC(=O)[C@H]([C@@H](C)O)NC(=O)[C@H](C(C)C)NC(=O)[C@H](CC2CCCCC2)NC(=O)[C@H](CCN)NC(=O)[C@@H](CC(C)C)NC(=O)[C@H](CCCN)NC1=O [Compound 1330]
7.93	CC[C@H](C)[C@@H]1NC(=O)[C@H](Cc2ccc(-c3ccccc3)cc2)NC(=O)[C@H](C(C)C)NC(=O)[C@H](Cc2c[nH]c3ccccc23)NC(=O)[C@H](CC(=O)O)NC(=O)[C@H](Cc2ccncc2)NC(=O)[C@H](Cc2ccc(OCC(=O)O)cc2)NC(=O)CSC[C@@H](C(=O)N[C@@H](C)C(N)=O)NC(=O)[C@H]([C@@H](C)O)NC(=O)[C@H](C(C)C)NC(=O)[C@H](CC2CCCCC2)NC(=O)[C@H](CCN)NC(=O)[C@@H](CC(C)C)NC(=O)[C@H](CCCN)NC1=O [Compound 1332]
8.17	Cc1cccc(C[C@@H]2NC(=O)[C@H](CC(=O)O)NC(=O)[C@H](Cc3ccncc3)NC(=O)[C@H](Cc3ccc(OCC(=O)O)cc3)NC(=O)CSC[C@@H](C(=O)N[C@@H](C)C(N)=O)NC(=O)[C@H]([C@@H](C)O)NC(=O)[C@H](C(C)C)NC(=O)[C@H](CC3CCCCC3)NC(=O)[C@H](CCN)NC(=O)[C@@H](CC(C)C)NC(=O)[C@H](CCCN)NC(=O)[C@H](C(C)C)NC(=O)[C@H](Cc3ccc(-c4ccccc4)cc3)NC(=O)[C@H](C(C)C)NC2=O)c1 [Compound 1329] ({CH2CO}-Y(Carboxymethyl)[4Pal]D[Phe(3-Me)]V[Bip]V[Orn][dL][Dab][Cha]VTCA-NH2; thioether N-14)
8.22	CC(C)C[C@H]1NC(=O)[C@H](CCCN)NC(=O)[C@H](C(C)C)NC(=O)[C@H](Cc2ccc(-c3ccccc3)cc2)NC(=O)[C@H](C(C)C)NC(=O)[C@H](Cc2c[nH]c3ccccc23)NC(=O)[C@H](CC(=O)O)NC(=O)[C@H](Cc2ccncc2)NC(=O)[C@H](Cc2ccc(OCC(=O)O)cc2)NC(=O)CSC[C@@H](C(=O)N[C@@H](C)C(N)=O)NC(=O)[C@H]([C@@H](C)O)NC(=O)[C@H](C(C)C)NC(=O)[C@H](CC2CCCCC2)NC(=O)[C@H](CCN)NC1=O [Compound 1331]
8.51	Cc1cccc(C[C@@H]2NC(=O)[C@H](CC(=O)O)NC(=O)[C@H](Cc3ccncc3)NC(=O)[C@H](Cc3ccc(OCC(=O)O)cc3)NC(=O)CSC[C@@H](C(=O)N[C@@H](C)C(N)=O)NC(=O)[C@H]([C@@H](C)O)NC(=O)[C@H](C(C)C)NC(=O)[C@H](CC3CCCCC3)NC(=O)[C@H](CCN)NC(=O)[C@@H](CC(C)C)NC(=O)[C@H](CCCN)NC(=O)[C@H](CCCNC(N)=O)NC(=O)[C@H](Cc3ccc(-c4ccccc4)cc3)NC(=O)[C@H](C(C)C)NC2=O)c1 [Compound 1325] ({CH2CO}-Y(Carboxymethyl)[4Pal]D[Phe(3-Me)]V[Bip][Cit][Orn][dL][Dab][Cha]VTCA-NH2; thioether N-14)
